The results in this text go back to patent publication US10059671B2, “Positive allosteric modulators of mGluR3” (Merck Patent GmbH, priority 2013, dated 2018).

One may read the EC50 as the concentration needed to bring the measured effect to its halfway point.

mGluR3, sequence (Q14832 23-879): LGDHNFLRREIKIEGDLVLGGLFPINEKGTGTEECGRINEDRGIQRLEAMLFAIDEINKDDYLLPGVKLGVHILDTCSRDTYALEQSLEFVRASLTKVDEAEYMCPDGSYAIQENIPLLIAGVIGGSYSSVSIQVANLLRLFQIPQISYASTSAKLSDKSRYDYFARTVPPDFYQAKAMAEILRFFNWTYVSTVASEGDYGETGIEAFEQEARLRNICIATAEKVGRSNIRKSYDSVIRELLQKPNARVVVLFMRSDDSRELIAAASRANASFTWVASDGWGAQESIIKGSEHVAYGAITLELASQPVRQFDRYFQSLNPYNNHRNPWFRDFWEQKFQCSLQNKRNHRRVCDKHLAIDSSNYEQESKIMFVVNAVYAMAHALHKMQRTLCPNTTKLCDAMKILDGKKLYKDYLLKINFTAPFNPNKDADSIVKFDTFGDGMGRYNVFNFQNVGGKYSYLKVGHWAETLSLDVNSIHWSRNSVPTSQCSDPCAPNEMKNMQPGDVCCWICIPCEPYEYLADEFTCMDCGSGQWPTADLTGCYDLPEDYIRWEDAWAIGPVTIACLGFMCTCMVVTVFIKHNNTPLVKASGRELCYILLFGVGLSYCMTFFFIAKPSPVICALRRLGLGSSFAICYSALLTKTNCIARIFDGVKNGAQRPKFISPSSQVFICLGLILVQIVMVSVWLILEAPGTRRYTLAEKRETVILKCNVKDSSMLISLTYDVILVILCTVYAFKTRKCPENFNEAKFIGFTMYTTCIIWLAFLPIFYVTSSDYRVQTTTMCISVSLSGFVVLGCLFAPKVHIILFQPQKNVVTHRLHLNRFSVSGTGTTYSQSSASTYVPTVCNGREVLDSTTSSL

The target in the test is mGluR3 (Homo sapiens, UniProt Q14832). In words: HEK293T-mGluR3-Gqi5 Calcium Mobilization Assay. The note with it: HEK293T-mGluR3-Gqi5 stable cell line; FLIPR Ca2+ fluorescence; with L-glutamate at EC20 concentration. Format: cell-based. The protocol:
II. Biological Assays HEK293T-mGluR3-Gqi5 Calcium Mobilization Assay Reagents: • Cells: HEK293T-mGluR3-Gqi5 Stable Cell Line (MultiSpan cat# CG1190) Culture Medium: • DMEM-GlutaMAX-1 (GIBCO #10566)+10% FBS (dialyzed & heat-inactivated, Hyclone cat# SH 30079.03), 2 mM sodium pyruvate (GIBCO #11360), 1 μg/ml puromycin (GIBCO #0399) and 250 ug/ml hygromycin (GIBCO #10687-010) HBSS (GIBCO #14025), add HEPES at 20 mM for a pH of 7.4 • 384 well cell plate: poly-D-lysine-coated, black/clear bottom microplates (Corning cat#3845) • Ca^2+ dye: FLIPR Ca-4 assay kit (Molecular Devices cat# R8142) • L-Glutamate (Sigma cat #2834) Cell Plating • Plate 8000 cells per well (1×10^5 cells/ml, in 80 μl) in a black, clear bottom, 384 well plate (Corning 3845). Incubate the cell plate for 30 minutes at RT and then incubate the cells 37° C., 5% CO2 for 16-24 hours before the assay. Ca^2+ Assay Using the FLIPR • Wash the cells with HBSS 3 times using the Bravo automated pipettor. The remaining volume of HBSS is 20 μl per well. • Add 20 μl of dye loading solution to each well and incubate the cells at 37° C., 5% CO2 for 1 hour. Prepare Compound Plate: • Serial dilute test compounds in DMSO at a 1:4 ratio, starting at al 0 mM concentration. Transfer 500 nl of the diluted compounds to a Matrix plate and add 30 μl of 37° C. HBSS, by Multidrop, to each well. The final starting concentration of the compounds is 33 uM. Prepare a solution of L-Glutamate in HBSS at 5× the EC20 concentration. Transfer to a 384 well Matrix plate using a Multidrop. The EC20 concentration is determined by a test plate before the screen. Assay: • Ca^2+ fluorescence is measured in the cells using the FLIPR Tetra (Molecular Devices). Following a baseline recording of the wells for 1 minute, add 10 ul of the diluted (5×) compounds to the cell plate and record for 3 minutes.
`CC(C)c1nc(N2CCOCC2)c(C#N)c2c1CCCC2` [Compound 1, 1-Isopropyl-3-morpholin-4-yl-5,6,7,8-tetrahydroisoquinoline-4-carbonitrile]: the EC50 is under 1000 nM. With `CCCc1nc(N2CCOCC2)c(C#N)c2c1COC(C)(C)C2` [Compound 2] the figure was 1000 to 10000 nM; with `CCc1nc(N2CCOCC2)c(C#N)c2c1CCCC2` [Compound 3], 1000 to 10000 nM; with `N#Cc1ccc(-c2ccccc2)nc1N1CCOCC1` [Compound 4], 1000 to 10000 nM. Regarding `CCCc1nc(NCCN2CCOCC2)c(C#N)c2c1CCCC2` [Compound 5], the 50% effective concentration (EC50) lay in the range of 1000 to 10000 nM. For `CCCc1nc(NCCO)c(C#N)c2c1CCCC2` [Compound 6], the EC50 was 1000 to 10000 nM. Take `CCc1nc(NCCCO)c(C#N)c2c1CCCC2` [Compound 7]: the EC50 is 1000 to 10000 nM. With `CCc1nc(NCCN)c(C#N)c2c1CSC(C)(C)C2` [Compound 8] the figure was 1000 to 10000 nM.
